The values below come from article PMC10666275 (ACS Omega, 2023).

Structures are written as SMILES. In brackets after ≈: the same amount, converted by molar mass. Entries after “also recorded” stand apart in the source; their conditions may differ.

In assay [1] the test system is P. aeruginosa. Description: Agar diffusion method, inhibition zones, P. aeruginosa. The class given is cell-based, Pseudomonas aeruginosa. Conditions: 24 h; for zone of inhibition at 10000 µg/mL: Pseudomonas aeruginosa, read-out: IZ (inhibition zone); for IZ (inhibition zone): P. aeruginosa, agar well diffusion, 100 μL of 10 mg/mL in DMSO, 37 °C. For orientation: In agar diffusion tests the substance spreads into inoculated agar from a disc or well.

The test system of assay [2] is MRSA. Description: Agar diffusion method, inhibition zones, MRSA. The class given is cell-based, methicillin-resistant Staphylococcus aureus. The following applies: Staphylococcus aureus, 24 h, read-out: IZ (inhibition zone).
The target in assay [3] is T1, dihydrofolate reductase (DHFR) enzyme (Homo sapiens, UniProt P00374).
T1 sequence (P00374 1-187): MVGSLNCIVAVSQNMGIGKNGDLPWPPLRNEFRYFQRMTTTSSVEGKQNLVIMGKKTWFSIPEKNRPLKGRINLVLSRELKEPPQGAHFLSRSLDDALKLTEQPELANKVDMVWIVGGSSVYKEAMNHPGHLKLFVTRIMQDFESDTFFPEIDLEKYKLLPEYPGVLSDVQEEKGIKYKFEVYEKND
As to the kind of experiment: In vitro DHFR inhibition assay. The class given is biochemical.

Assay [4] deals with MRSA. Description: Resazurin-based 96-well plate microdilution MIC, MRSA. It is filed as cell-based, methicillin-resistant Staphylococcus aureus. The following applies: Staphylococcus aureus, 24 h. Background: Alamar Blue is a resazurin reagent that responds to reducing activity.
Assay [5] has as its system P. aeruginosa. As to the kind of experiment: Resazurin-based 96-well plate microdilution MIC, P. aeruginosa. It is filed as cell-based. Conditions: Pseudomonas aeruginosa, 24 h.
A further assay has as its system MRSA-induced keratitis. As to the kind of experiment: MRSA-induced keratitis in rats. It is filed as in vivo, rat (Sprague–Dawley).

With `COc1cc(C(=O)/C=C\c2cn(-c3ccccc3)nc2-c2ccccc2)cc(OC)c1OC` [compound 4, (Z)-3-(1,3-Diphenyl-1H-pyrazol-4-yl)-1-(3,4,5-trimethoxyphenyl)prop-2-en-1-one], the values for the zone of inhibition at 10000 µg/mL with P. aeruginosa [1] and with MRSA [2] were 15 mm and 17 mm, respectively. The IC50 – broadly, the concentration at which inhibition is half-maximal – in assay [3] was determined as 5 ± 0.23 µM.

`COc1cc(-c2cc(-c3cn(-c4ccccc4)nc3-c3ccccc3)[nH]c(=O)n2)cc(OC)c1OC` [compound 5a, 6-(1,3-Diphenyl-1H-pyrazol-4-yl)-4-(3,4,5-trimethoxyphenyl)pyrimidine-2(1H)-one]: the zone of inhibition at 10000 µg/mL worked out at 22 mm in the assay with P. aeruginosa [1] and 25 mm with MRSA [2]. In addition, half-maximal inhibition in assay [3] (IC50) was put at 4.2 ± 0.2 µM. Also, the MIC (in general, the lowest concentration found to suppress growth) against MRSA [4] was 2080 µM (≈ 1000 µg/mL); with P. aeruginosa [5], 8.32 mM (≈ 4000 µg/mL).

Consider `COc1cc(-c2cc(-c3cn(-c4ccccc4)nc3-c3ccccc3)[nH]c(=S)n2)cc(OC)c1OC` [compound 5b, 6-(1,3-Diphenyl-1H-pyrazol-4-yl)-4-(3,4,5-trimethoxyphenyl)pyrimidine-2(1H)-thione], for which the zone of inhibition at 10000 µg/mL in the assay with P. aeruginosa [1] is 20 mm; with MRSA [2], 23 mm. This molecule also gave an IC50 in assay [3] of 4.1 ± 0.19 µM. Further, the MIC in the assay with MRSA [4] stood at 1010 µM (≈ 500 µg/mL); against P. aeruginosa [5], 4.03 mM (≈ 2000 µg/mL).

As for `COc1cc(-c2cc(-c3cn(-c4ccccc4)nc3-c3ccccc3)[nH]c(=N)n2)cc(OC)c1OC` [compound 5c, 6-(1,3-Diphenyl-1H-pyrazol-4-yl)-4-(3,4,5-trimethoxyphenyl)pyrimidine-2(1H)-imine], the figures for the zone of inhibition at 10000 µg/mL with P. aeruginosa [1] and in the assay on MRSA [2] were 24 mm and 28 mm, respectively. This molecule came in with an IC50 in assay [3] of 4 ± 0.18 µM. The “area % of corneal opacity (infection intensity)” value in the assay with MRSA-induced keratitis (5c dispersion, versus MRSA group) is reported as “significantly (P < 0.0001) reduced infection in rats; also recorded: significant reduction in the area % of corneal opacity”. Further, the inflammation score entry with MRSA-induced keratitis (H&E cornea, score 0-4, versus MRSA group) is “significant decrease in inflammation score”. The “corneal inflammation, histological evaluation (H&E)” value in the assay with MRSA-induced keratitis (MRSA/5c dispersion group compared to MRSA group) is “mild to moderate inflammatory cell infiltration”. The MIC against MRSA [4] was 521 µM (≈ 250 µg/mL); against P. aeruginosa [5] it was 2.08 mM (≈ 1000 µg/mL).

For `COc1cc(C2=NNC(c3cn(-c4ccccc4)nc3-c3ccccc3)C2)cc(OC)c1OC` (stereo not drawn) [compound 6a, 1′,3′-Diphenyl-5-(3,4,5-trimethoxyphenyl)-3,4-dihydro-1′H,2H-3,4′-bipyrazole], the results for the zone of inhibition at 10000 µg/mL in the assay with P. aeruginosa [1] and in the assay with MRSA [2] were 6 mm and 15 mm, respectively. The molecule also had an IC50 in assay [3] of 5.56 ± 0.27 µM.

Turning to `COc1cc(C2=NN(c3ccccc3)C(c3cn(-c4ccccc4)nc3-c3ccccc3)C2)cc(OC)c1OC` (stereo not drawn) [compound 6b, 1′,2,3′-Triphenyl-5-(3,4,5-trimethoxyphenyl)-3,4-dihydro-1′H,2H-3,4′-bipyrazole], in the assay on P. aeruginosa [1], the “IZ (inhibition zone)” value is “no detectable activity” and the zone of inhibition at 10000 µg/mL was determined as 0 mm. The zone of inhibition at 10000 µg/mL in the assay on MRSA [2] worked out at 6 mm. In assay [3], this molecule came in with an IC50 of 6.45 ± 0.31 µM.

For `COc1cc(C2=NN(C(C)=O)C(c3cn(-c4ccccc4)nc3-c3ccccc3)C2)cc(OC)c1OC` (stereo not drawn) [compound 7, 1-(1′,3′-Diphenyl-5-(3,4,5-trimethoxyphenyl)-3,4-dihydro-1′H,2H-[3,4′-bipyrazol]-2-yl)ethan-1-one], in the assay on P. aeruginosa [1], the “IZ (inhibition zone)” value is “no detectable activity” and the zone of inhibition at 10000 µg/mL was found to be 0 mm. Further, the zone of inhibition at 10000 µg/mL in the assay with MRSA [2] stood at 11 mm. The concentration for half-maximal inhibition (IC50) in assay [3] was 6.7 ± 0.31 µM.

For `C[C@H]1COc2c(N3CCN(C)CC3)c(F)cc3c(=O)c(C(=O)O)cn1c23` [levofloxacin, reference compound], the zone of inhibition at 10000 µg/mL in the assay with P. aeruginosa [1] was determined as 27 mm; in the assay with MRSA [2], 31 mm. The minimal inhibitory concentration (MIC) in the assay with MRSA [4] stood at 346 µM (≈ 125 µg/mL); against P. aeruginosa [5], 1.38 mM (≈ 500 µg/mL).
